The values that follow come from paper PMC6109063 (Nature Communications, 2018).

Each structure is given as a SMILES string.

For the experiment, the target named is T1, FgGcn5 (Fusarium graminearum, UniProt I1R9W6).
T1 construct: gene FGRAMPH1_01T00753
The conditions noted are these: inhibitor; 30 ug/ml PCN; recombinant GST-H3 substrate, 5 mM acetyl-CoA, Tris-HCl pH 8.0, 37 C, 45 min.

T1 sequence (I1R9W6 1-396): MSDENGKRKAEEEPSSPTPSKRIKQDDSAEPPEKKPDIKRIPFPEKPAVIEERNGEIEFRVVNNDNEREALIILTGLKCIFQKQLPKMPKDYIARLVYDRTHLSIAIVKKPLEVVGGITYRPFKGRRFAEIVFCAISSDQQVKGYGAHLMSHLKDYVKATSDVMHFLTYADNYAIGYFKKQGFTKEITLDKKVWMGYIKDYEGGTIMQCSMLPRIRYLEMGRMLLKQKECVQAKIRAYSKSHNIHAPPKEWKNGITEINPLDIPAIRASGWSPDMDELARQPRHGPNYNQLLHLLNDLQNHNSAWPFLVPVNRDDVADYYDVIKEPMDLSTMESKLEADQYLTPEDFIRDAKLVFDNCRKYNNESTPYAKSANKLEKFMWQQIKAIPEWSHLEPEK

Turning to `NC(=O)c1cccc2nc3ccccc3nc12` [PCN, phenazine-1-carboxamide], the “in vitro histone H3 acetylation assay, immunoblot (H3 pan-acetyl and H3K18ac)” value is “demonstrating that PCN was able to inhibit the HAT activity of FgGcn5 in vitro”.
